{"source": "patent US12343350B2", "about": "“Istaroxime-containing intravenous formulation for the treatment of acute heart failure (AHF)” (Windtree Therapeutics, Inc., priority 2019, dated 2025)", "key": {"SERCA2a": {"target": "SERCA2a (Canis lupus familiaris (Dog) (Canis familiaris), UniProt O46674)", "sequence (O46674 whole entry)": "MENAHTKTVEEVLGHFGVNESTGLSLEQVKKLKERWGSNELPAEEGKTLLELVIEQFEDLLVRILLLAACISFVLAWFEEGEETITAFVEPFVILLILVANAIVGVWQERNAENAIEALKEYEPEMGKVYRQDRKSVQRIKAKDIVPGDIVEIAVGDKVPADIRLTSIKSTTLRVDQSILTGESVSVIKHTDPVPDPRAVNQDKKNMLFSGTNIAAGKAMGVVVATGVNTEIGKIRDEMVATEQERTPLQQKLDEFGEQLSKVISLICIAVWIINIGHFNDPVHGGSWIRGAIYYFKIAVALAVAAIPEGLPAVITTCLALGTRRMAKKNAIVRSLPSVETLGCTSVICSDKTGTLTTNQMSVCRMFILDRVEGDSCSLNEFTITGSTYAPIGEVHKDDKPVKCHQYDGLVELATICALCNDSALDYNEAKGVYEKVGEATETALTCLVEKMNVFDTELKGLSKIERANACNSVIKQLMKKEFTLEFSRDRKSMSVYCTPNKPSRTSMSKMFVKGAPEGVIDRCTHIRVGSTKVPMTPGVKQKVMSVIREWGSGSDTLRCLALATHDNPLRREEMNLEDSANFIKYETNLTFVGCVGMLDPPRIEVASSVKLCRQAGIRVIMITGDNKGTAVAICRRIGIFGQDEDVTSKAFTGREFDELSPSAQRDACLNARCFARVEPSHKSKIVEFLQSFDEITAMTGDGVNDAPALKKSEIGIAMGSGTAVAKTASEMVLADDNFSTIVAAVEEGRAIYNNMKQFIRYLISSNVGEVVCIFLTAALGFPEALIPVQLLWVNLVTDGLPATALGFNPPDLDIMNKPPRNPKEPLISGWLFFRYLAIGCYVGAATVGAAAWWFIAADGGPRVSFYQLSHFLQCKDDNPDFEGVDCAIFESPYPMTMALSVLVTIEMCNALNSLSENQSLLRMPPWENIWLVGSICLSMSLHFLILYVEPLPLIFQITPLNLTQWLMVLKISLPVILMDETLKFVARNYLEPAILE", "experiment": "SERCA2a ATPase activity in SR preparations from failing dog", "format": "biochemical", "conditions": "data not shown", "procedure": "Male beagle dogs were used for obtaining cardiac tissues for SERCA2a-enriched sarcoplasmic reticulum preparations. Healthy dogs were utilized for obtaining the data in Table 3. Chronic heart failure was induced in dogs by multiple intracoronary microembolizations with polystyrene latex microspheres ([…], Polysciences, Warrington, PA, USA) as described previously (see Sabbah H N et al., Am J Physiol. 1991; 260:H1379-84). The experiments were conducted in the General Pharmacology Department of Sigma-Tau, Rome, Italy. […]\nSERCA2a activity was measured in vitro as ^32P-ATP hydrolysis at different Ca2^+ concentrations (100 to 3000 nM) in the absence and presence of the tested compounds as described previously (see Micheletti R. et al., Am J Card 2007; 99:24A-32A). […] The ATP hydrolysis was continued for 15 min at 37° C. and was stopped by acidification with 100 μl of 20% v/v ice-cold perchloric acid. ^32P was separated by centrifugation with activated charcoal (Norit A, SERVA) and the radioactivity was measured. […]\nDose-response curves were fitted by using a sigmoidal curve fitting software and the maximal velocity (Vmax) activity and the Kd Ca2^+ were calculated (Synergy Software KaleidaGraph 3.6). […]"}, "STZ diabetic rats": {"test_system": "STZ diabetic rats", "experiment": "Haemodynamics in streptozotocin (STZ) diabetic rats (echocardiography 2M-Doppler-Tissue Doppler)", "format": "in vivo, rat", "procedure": "Sprague Dawley male rats (150-175 g) were made diabetic by a single injection into the tail vein of a solution of streptozotocin (STZ, 50 mg/kg, Sigma-Aldrich), freshly prepared in 0.1 M sodium citrate buffer, pH 4.5. Control rats received citrate buffer. Fasting glycaemia was measured after 1 week and rats with values greater than 400 mg/dl were considered diabetic.\nEight to nine weeks after STZ injection, rats were submitted to transthoracic echocardiographic and Doppler evaluation performed under pentobarbital anesthesia. Two-dimensionally guided M-mode recordings were used to obtain short-axis measurements of left ventricular end-diastolic diameter (LVEDD), left ventricular end-systolic diameter (LVESD), posterior (PW) and septal (SW) diastolic wall thickness according to the American Society of Echocardiography guidelines (Lang R M et al., Eur J Echocardiography 2006; 7:79-108). Fractional shortening was calculated as FS=(LVEDD-LVESD)/LVEDD. Relative wall thickness was calculated as PWTd+IVSTd/LVEDD.\nMitral inflow was measured by pulsed Doppler at the tips of mitral leaflets from an apical 4-chamber view to obtain early and late filling velocities (E, A) and deceleration time of early filling velocity (DT). The deceleration slope was calculated as E/DT ratio. The mitral deceleration index was calculated as DT/E ratio.\nTissue Doppler Imaging (TDI) was evaluated from the apical 4-chamber view to record septal mitral annular movements, i.e., peak myocardial systolic (s′) and early and late diastolic velocity (e′ and a′).\nThe compound PST 3093 was iv administered to STZ injected rats at the dose of 0.22 mg/kg and echocardiographic parameters were measured after 15 and 30 min from the beginning of iv infusion and 10 min after interruption of infusion."}, "[1]": {"conditions": "after 10 min from STOP infusion"}}, "note": "Marks after values point to notes of the source that are not given here."}
{"smiles": "C[C@]12CCC(=NOCCN)C[C@@H]1C(=O)C[C@@H]1[C@@H]2CC[C@]2(C)C(=O)CC[C@@H]12", "note": "[Istaroxime, (3Z,5a)-3-[(2-aminoethoxy)imino]androstane-6,17-dione]", "values": [{"measurement": "SERCA2a activation", "setting": "SERCA2a", "result": "particularly evident"}]}
{"smiles": "C[C@]12CCC(=NOCC(=O)O)CC1[C@H](O)CC1C2CC[C@]2(C)C(=O)CCC12", "note": "(stereo partly drawn) [PST 3093, (E,Z)-[(6-beta-hydroxy-17-oxoandrostan-3-ylidene)amino]oxyacetic acid]", "values": [{"measurement": "CO, cardiac output", "setting": "STZ diabetic rats; 0.22 mg/kg iv, after 15 min", "result": "231.7 ± 64", "unit": "mL/min"}, {"measurement": "DT, deceleration time of E wave", "setting": "STZ diabetic rats; 0.22 mg/kg iv, after 15 min", "result": "40.2 ± 9.54", "unit": "ms"}, {"measurement": "DT/E, mitral deceleration index", "setting": "STZ diabetic rats; 0.22 mg/kg iv, after 15 min", "result": "40.39 ± 15.04* s^2/m"}, {"measurement": "E, E wave, early filling velocity of mitral inflow", "setting": "STZ diabetic rats; 0.22 mg/kg iv, after 15 min", "result": "1.048 ± 0.218"}, {"measurement": "E/DT, decelaration slope", "setting": "STZ diabetic rats; 0.22 mg/kg iv, after 15 min", "result": "27.51 ± 8.42", "unit": "m/s^2"}, {"measurement": "E/e′, index of LV filling pressure", "setting": "STZ diabetic rats; 0.22 mg/kg iv, after 15 min", "result": "38.61 ± 4.71"}, {"measurement": "HR, heart rate", "setting": "STZ diabetic rats; 0.22 mg/kg iv, after 15 min", "result": "271 ± 33", "unit": "beat/min"}, {"measurement": "SV, stroke volume", "setting": "STZ diabetic rats; 0.22 mg/kg iv, after 15 min", "result": "0.85 ± 0.18", "unit": "ml/beat"}, {"measurement": "e′ TDI, early relaxation velocity", "setting": "STZ diabetic rats; 0.22 mg/kg iv, after 15 min", "result": "27.01 ± 3.4", "unit": "cm/s"}, {"measurement": "CO, cardiac output", "setting": "STZ diabetic rats; 0.22 mg/kg iv, after 30 min", "result": "230.6 ± 46.7", "unit": "mL/min"}, {"measurement": "DT, deceleration time of E wave", "setting": "STZ diabetic rats; 0.22 mg/kg iv, after 30 min", "result": "36.6 ± 6.09", "unit": "ms"}, {"measurement": "DT/E, mitral deceleration index", "setting": "STZ diabetic rats; 0.22 mg/kg iv, after 30 min", "result": "35.47 ± 10.19* s^2/m"}, {"measurement": "E, E wave, early filling velocity of mitral inflow", "setting": "STZ diabetic rats; 0.22 mg/kg iv, after 30 min", "result": "1.076 ± 0.211"}, {"measurement": "E/DT, decelaration slope", "setting": "STZ diabetic rats; 0.22 mg/kg iv, after 30 min", "result": "30.36 ± 8.73", "unit": "m/s^2"}, {"measurement": "E/e′, index of LV filling pressure", "setting": "STZ diabetic rats; 0.22 mg/kg iv, after 30 min", "result": "38.7 ± 4.26"}, {"measurement": "HR, heart rate", "setting": "STZ diabetic rats; 0.22 mg/kg iv, after 30 min", "result": "269 ± 29", "unit": "beat/min"}, {"measurement": "SV, stroke volume", "setting": "STZ diabetic rats; 0.22 mg/kg iv, after 30 min", "result": "0.86 ± 0.14", "unit": "ml/beat"}, {"measurement": "e′ TDI, early relaxation velocity", "setting": "STZ diabetic rats; 0.22 mg/kg iv, after 30 min", "result": "27.77 ± 4.27", "unit": "cm/s"}, {"measurement": "CO, cardiac output", "setting": "STZ diabetic rats; [1]", "result": "200.88 ± 51.7", "unit": "mL/min"}, {"measurement": "DT, deceleration time of E wave", "setting": "STZ diabetic rats; [1]", "result": "41.88 ± 7.86", "unit": "ms"}, {"measurement": "DT/E, mitral deceleration index", "setting": "STZ diabetic rats; [1]", "result": "49.08 ± 13.09* s^2/m"}, {"measurement": "E, E wave, early filling velocity of mitral inflow", "setting": "STZ diabetic rats; [1]", "result": "0.89 ± 0.19"}, {"measurement": "E/DT, decelaration slope", "setting": "STZ diabetic rats; [1]", "result": "22.36 ± 8.89", "unit": "m/s^2"}, {"measurement": "E/e′, index of LV filling pressure", "setting": "STZ diabetic rats; [1]", "result": "39.45 ± 4.18"}, {"measurement": "HR, heart rate", "setting": "STZ diabetic rats; [1]", "result": "249 ± 28", "unit": "beat/min"}, {"measurement": "SV, stroke volume", "setting": "STZ diabetic rats; [1]", "result": "0.81 ± 0.17", "unit": "ml/beat"}, {"measurement": "e′ TDI, early relaxation velocity", "setting": "STZ diabetic rats; [1]", "result": "22.48 ± 3.35", "unit": "cm/s"}]}
